The values that follow are results of earlier work, collected in patent US20180015074A1, “USE OF MTOR INHIBITORS TO PREVENT AND REGRESS EDHESIONS AND FIBROSIS” (THE BOARD OF REGENTS OF THE UNIVERSITY OF TEXAS SYSTEM, priority 2015, published 2018).

For one data set, the system named is post-surgical adhesions. The conditions noted are these: daily IP injection immediately following surgery, rat.
For data set [1], the system named is wound strength in the intestine and abdominal fascia.

Where two headings read alike, the source gives them in different places.

As for `CO[C@H]1C[C@@H]2CC[C@@H](C)[C@@](O)(O2)C(=O)C(=O)N2CCCC[C@H]2C(=O)O[C@H]([C@H](C)C[C@@H]2CC[C@@H](O)[C@H](OC)C2)CC(=O)[C@H](C)/C=C(\C)[C@@H](O)[C@@H](OC)C(=O)[C@H](C)C[C@H](C)/C=C/C=C/C=C/1C` [rapamycin, (3S,6R,7E,9R,10R,12R,14S,15E,17E,19E,21S,23S,26R,27R,34aS)-9,10,12,13,14,-21,22,23,24,25,26,27,32,33,34,34a-hexadecahydro-9,27-dihydroxy-3-[(1R)-2-[-(1S,3R,4R)-4-hydroxy-3-methoxycyclohexyl]-1-methylethyl]-10,21-dimethoxy-6,8,12,14,20,26-hexamethyl-23,27-epoxy-3H-pyrido[2,1-c][1,4]oxaazacyclohent-ria-contine-1,5,11,28,29(4H,6H,31H)-pentone], the wound infections result in the data set on post-surgical adhesions was “higher rate of wound infections”. In addition, the values for the wound strength entry in data set [1] (administration delayed 2-4 days post-surgery) and in data set [1] (administration immediately following surgery) were “ameliorated this loss” and “serious loss of wound strength”, respectively.
